For the assay, the target named is DNA. As to the kind of experiment: Displacement of methyl green from DNA (unknown origin) assessed as DNA intercalation after 24 hrs by colorimetric assay. The class given is nucleic-acid assay.

The structures appear in SMILES notation. ≈ marks a conversion by molar mass, not a printed value.

Regarding `COc1cc(/C=C/C2=CC(c3cc(OC)c(OC)c(OC)c3)N3C=CSC3=N2)cc(OC)c1OC` (configuration not stated), the IC50 is 55.42 µg/mL (≈ 112 µM). Under `Cc1ccc(/C=C/C2=CC(c3ccc(C)cc3)N3C=CSC3=N2)cc1` (configuration not stated) stands 62.74 µg/mL (≈ 182 µM); under `CC1=CSC2=NC(/C=C/c3ccc(Cl)cc3)=CC(c3ccc(Cl)cc3)N12` (configuration not stated), 50.91 µg/mL (≈ 127 µM). As to `CC1=CSC2=NC(/C=C/c3ccc(C)cc3)=CC(c3ccc(C)cc3)N12` (configuration not stated), the IC50 stood at 83.41 µg/mL (≈ 233 µM). Under `COc1ccc(/C=C/C2=CC(c3ccc(OC)cc3)N3C(C)=CSC3=N2)cc1` (configuration not stated) stands 42.5 µg/mL (≈ 109 µM); under `Clc1ccc(/C=C/C2=CC(c3ccc(Cl)cc3)N3C=CSC3=N2)cc1` (configuration not stated), 56.33 µg/mL (≈ 146 µM); under `CCOC(=O)C1=CSC2=NC(/C=C/c3ccc(OC)cc3)=CC(c3ccc(OC)cc3)N12` (configuration not stated), 28.38 µg/mL (≈ 63.3 µM).

The term IC50 denotes the concentration needed to halve the response being measured.

These data come from ChEMBL document CHEMBL4665869, “New thiazolopyrimidine as anticancer agents: Synthesis, biological evaluation, DNA binding, molecular modeling and ADMET study” (Bioorg Med Chem Lett, 2020).
